Assay [1] relates to Ratten. As to the kind of experiment: Mean arterial blood pressure in pentobarbital-anaesthetised rats, 10 min i.v. infusion as lipid emulsion. It is filed as in vivo. Conditions: mean arterial pressure in % of baseline, mean of 4 rats. How it is done:
So wurde an durch intraperitoneale Injektion von 60 mg/kg Natriumpentobarbital narkotisierten Ratten über einen Carotis-Katheter mit Hilfe eines Druckübermittlers der Blutdruck überwacht. Den Tieren (in Gruppen von je 4 Tieren) wurden dann für jeweils 10 Minuten über einen in die rechte vena femoralis eingesetzten Katheter • 1) 10,0 µg/kg/min der Verbindung A (R₁ = H) • 2) 9,6 µg/kg/min der Verbindung B (R₁ = H) • 3) 6,2 µg/kg/min des Esters der Formel I (X = 0) bzw. • 4) 10,5 µg/kg/min des Esters der Formel I (X = CH₂) injiziert, wobei diese Verbindungen in Form einer Lipidemulsion (vgl. Mizushima et al. J. Pharm. Pharmacol. 34 (1982) 49 - 50 und Ann. Rheum. Dis. 41 (1982) 263 - 267) zur Anwendung kamen. Dabei ergaben sich fol gende Werte des mittleren arteriellen Blutdrucks (in % des Ausgangswertes; jeweils als Mittelwert für die Tiere einer Gruppe): […]

Assay [2] has as its system ADP-induzierten Thrombozytenaggregation. The assay is described as follows: ADP-induced platelet aggregation (platelet count fall) in the urethane-anaesthetised rat after oral dosing. Format: in vivo, Ratte. As to conditions: 100 µg/kg ADP i.v. bolus. How it is done:
Zur Bestimmung der ADP-induzierten Thrombozytenaggregation an der Urethan-narkotisierten Ratte nach oraler Gabe der Vergleichssubstanzen wurde den Tieren ein Carotis-Katheter eingesetzt und über diesen kontinuierlich Blut entnommen. Nach Zumischen von Natriumzitrat wurde in einem Technicon-Thrombocounter die Thrombozytenzahl bestimmt. 15 Minuten und unmittelbar vor der Gabe der Prüfsubstanz sowie 15, 30, 45 und 60 min. nach der Prüfsubstanzgabe wurden über die vena jugularis jeweils 100 µg/kg ADP als Bolus injiziert und der Thrombozytenabfall unter der ADP-Injektion bestimmt. Der Mittelwert der beiden Werte vor der Prüfsubstanzgabe wurde als Ausgangs-Kontrollwert genommen und die Werte nach Prüfsubstanzgabe als %-Änderung gegenüber diesem Wert bestimmt.

The subject of assay [3] is durch ADP induzierten Blutplättchenaggregation. Conditions: rat plasma; in % of the effect of the free acid; cited from earlier work.
In assay [4] the test system is Hunden. As to conditions: dogs; potency in % of the free acid; cited from earlier work.
The test system of assay [5] is menschlichen Blutplättchen. As to conditions: aggregation induced by various agents; compared with natural Prostacyclin; cited from earlier work.
[6] abbreviates: 15 min after oral dose of 10 mg/kg.
Setting [7] is: 30 min after oral dose of 10 mg/kg.
Where [8] appears, read: 45 min after oral dose of 10 mg/kg.
Where [9] appears, read: 60 min after oral dose of 10 mg/kg.

Consider `O=C(O)c1cccc(/C=C2\C[C@H]3C[C@@H](O)[C@H](/C=C/[C@@H](O)C4CCCCC4)[C@H]3C2)c1` (relative stereo) [B(R₁=H), 3E-(m-Carboxybenzyliden)-6β-(3′S-hydroxy-3′-cyclohexyl-1′E-propenyl)-7α-hydroxy-cis-bicyclo-[3.3.0]octan, reference compound], for which the “Relativer Blutdruck (%) Minuten nach Injektionsbeginn” value in assay [1] (5 min, 9,6 µg/kg/min i.v. for 10 min) is listed as 80%; in assay [1] (10 min, 9,6 µg/kg/min i.v. for 10 min), 84%; in assay [1] (20 min, 9,6 µg/kg/min i.v. for 10 min) it was 105%. Further, the “Thrombozytenaggregationshemmung in % des Ausgangskontrollwertes nach Minuten” value in assay [2] (setting [6]) is 68,9±6,8%; in assay [2] (setting [7]), 55,1±6,7%; in assay [2] (setting [8]), 51,8±6,4%; in assay [2] (setting [9]), 38,1±6,3%.

`O=C(O)c1cccc(/C=C2/C[C@@H]3[C@@H](/C=C/[C@@H](O)C4CCCCC4)[C@H](O)C[C@@H]3O2)c1` (relative stereo) [A (R₁ = H), 2-Oxa-3Z-(m-carboxybenzyliden)-6β-(3′-S-hydroxy-3′cyclohexyl-1′E-propenyl)-7α-hydroxy-cis-bicyclo[3.3.0] octan, reference compound]: the “Relativer Blutdruck (%) Minuten nach Injektionsbeginn” value came out at 64% in assay [1] (5 min, 10,0 µg/kg/min i.v. for 10 min); 65% in assay [1] (10 min, 10,0 µg/kg/min i.v. for 10 min); 94% in assay [1] (20 min, 10,0 µg/kg/min i.v. for 10 min).

Turning to `CC(C)(C)C(=O)OCOC(=O)c1cccc(/C=C2\C[C@H]3C[C@@H](O)[C@H](/C=C/[C@@H](O)C4CCCCC4)[C@H]3C2)c1` [I(X=CH₂), 3E-(m-Pivaloyloxymethyloxycarbonyl-benzyliden)-6β-(3′S-hydroxy-3′-cyclohexyl-1′E-propenyl)-7α hydroxy-cis-bicyclo[3.3.0]octan], the “Relativer Blutdruck (%) Minuten nach Injektionsbeginn” value in assay [1] (5 min, 10,5 µg/kg/min i.v. for 10 min) came to 62%; in assay [1] (10 min, 10,5 µg/kg/min i.v. for 10 min), 51%; in assay [1] (20 min, 10,5 µg/kg/min i.v. for 10 min) it was 69%. Moreover, the “Thrombozytenaggregationshemmung in % des Ausgangskontrollwertes nach Minuten” value in assay [2] (setting [6]) is 24,0±3,0%; in assay [2] (15 min after oral dose of 100 mg/kg), 59,4±3,0%; in assay [2] (setting [7]), 28,1±3,8%; in assay [2] (30 min after oral dose of 100 mg/kg), 63,3±6,8%; in assay [2] (setting [8]) it was 29,1±3,9%; in assay [2] (45 min after oral dose of 100 mg/kg), 68,1±2,0%. Further, the entries for the “Thrombozytenaggregationshemmung in % des Ausgangskontrollwertes nach Minuten” value in assay [2] (setting [9]) and in assay [2] (60 min after oral dose of 100 mg/kg) were 30,3±4,6% and 71,0±4,4%, respectively.

For `CC(C)(C)C(=O)OCOC(=O)c1cccc(/C=C2/C[C@@H]3[C@@H](/C=C/[C@@H](O)C4CCCCC4)[C@H](O)C[C@@H]3O2)c1` [I (X = 0), 2-Oxa-3Z-(m-pivaloyloxymethyloxycarbonyl-benzyliden)-6β-(3′S-hydroxy-3′-cyclohexyl-1′E-propenyl)-7α-hydroxy-cis-bicyclo[3.3.0]octan], the “Relativer Blutdruck (%) Minuten nach Injektionsbeginn” value was 58% in assay [1] (5 min, 6,2 µg/kg/min i.v. for 10 min); 62% in assay [1] (10 min, 6,2 µg/kg/min i.v. for 10 min); 81% in assay [1] (20 min, 6,2 µg/kg/min i.v. for 10 min).

Regarding `CCCCCC(O)/C=C/C1C(O)CC2CC(=CCCCC(=O)OC)CC21` (stereo not drawn) [Methylester der (5EZ,13E)(9α,11α,15α)-6,9-methano-11,15-dihydroxyprosta-5,13-diensäure], the “Hemmung der durch ADP induzierten Blutplättchenaggregation, Wirkung relativ zur freien Säure” value in assay [3] was approximately 80%. Moreover, in assay [4], the “Wirkung auf den Blutdruck, relativ zur freien Säure” value is 50 - 60%.

`CCCCCC(O)C#CC1C(O)CC2OC(=CCCCC(=O)OC)CC21` (stereo not drawn) [13,14-Dehydroprostacyclinmethylester]: the “Aggregationshemmung von menschlichen Blutplättchen” value in assay [5] was “ähnlich wirksam”.

The values above are taken from patent EP0396024A2, “Esters, medicaments containing them and preparation of these esters and medicaments” (Grünenthal GmbH, priority 1989, dated 1990).
